Measured values from patent US10351575B2, “Bicyclic urea, thiourea, guanidine and cyanoguanidine compounds useful for the treatment of pain” (Array BioPharma Inc., priority 2012, dated 2019).

biological target: His-tagged recombinant human TrkA (Homo sapiens (Human), UniProt P04629); test: TrkA LanthaScreen Eu Kinase Binding Assay; conditions: averaged IC50; TR-FRET binding, 60 min, 22° C.; read-out: TrkA Enzyme IC50
Experimental: TrkA binding activity was determined in a TrkA LanthaScreen™ Eu Kinase Binding Assay. 5 nM His-tagged recombinant human TrkA (6HIS tagged cytoplasmic domain from Invitrogen, Catalog No. PV3144) was incubated with 4 nM Alexa-Fluor® Tracer 236 (Invitrogen Cat. No. PV5592), 2 nM biotinylated anti-His (Invitrogen Cat. No. PV6090), and 2 nM europium-labeled Streptavidin (Invitrogen Cat. No. PV5899), in buffer (25 mM MOPS, pH 7.5, 5 mM MgCl2, 0.005% Triton X-100). Three fold serial dilutions of compounds of the invention in DMSO were added to a final percentage of 2% DMSO. After 60-minute incubation at 22° C., the reaction was measured using the EnVision mutlimode plate reader (PerkinElmer) via TR-FRET dual wavelength detection at […]. The percent of control was calculated using a ratiometric emission factor. The IC50 values were determined by fitting a four parameter model to the percent of control data.

Sequence of His-tagged recombinant human TrkA (P04629 440-796): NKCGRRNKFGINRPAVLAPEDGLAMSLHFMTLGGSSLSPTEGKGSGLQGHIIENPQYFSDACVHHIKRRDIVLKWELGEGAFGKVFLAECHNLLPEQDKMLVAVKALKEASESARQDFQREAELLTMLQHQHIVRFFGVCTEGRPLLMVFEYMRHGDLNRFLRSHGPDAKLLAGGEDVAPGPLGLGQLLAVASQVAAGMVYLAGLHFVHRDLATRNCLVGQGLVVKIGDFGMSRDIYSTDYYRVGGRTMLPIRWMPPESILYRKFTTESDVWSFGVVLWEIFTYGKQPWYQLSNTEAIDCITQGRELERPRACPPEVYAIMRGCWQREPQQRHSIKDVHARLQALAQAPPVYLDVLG

IC50, < 100 nM:
Cc1c(-c2cnn(C)c2)nn(-c2ccccc2)c1NC(=O)N[C@@H]1c2ccccc2C2(CC2)[C@H]1O (relative stereo) [Example 55, 1-(1′,4-dimethyl-1-phenyl-1H,1′H-[3,4′-bipyrazol]-5-yl)-3-(trans-2′-hydroxy-2′,3′-dihydrospiro[cyclopropane-1,1′-inden]-3′-yl)urea]
Cc1ncc(-c2nn(-c3ccccc3)c(NC(=O)N[C@@H]3c4ccccc4C4(CC4)[C@H]3O)c2C)cn1 (relative stereo) [Example 56, 1-(trans-2′-hydroxy-2′,3′-dihydrospiro[cyclopropane-1,1′-inden]-3′-yl)-3-(4-methyl-3-(2-methylpyrimidin-5-yl)-1-phenyl-1H-pyrazol-5-yl)urea]
COc1ncc(-c2nn(-c3ccccc3)c(NC(=O)N[C@@H]3c4ccccc4C4(CC4)[C@H]3O)c2C)cn1 (relative stereo) [Example 57, 1-(trans-2′-hydroxy-2′,3′-dihydrospiro[cyclopropane-1,1′-inden]-3′-yl)-3-(3-(2-methoxypyrimidin-5-yl)-4-methyl-1-phenyl-1H-pyrazol-5-yl)urea]
Cc1c(-c2cnn(C)c2)nn(-c2ccccc2)c1NC(=O)N[C@@H]1c2cc(F)c(F)cc2C2(CC2)[C@H]1O (relative stereo) [Example 58, 1-(trans-5′,6′-difluoro-2′-hydroxy-2′,3′-dihydrospiro[cyclopropane-1,1′-inden]-3′-yl)-3-(1′,4-dimethyl-1-phenyl-1H,1′H-[3,4′-bipyrazol]-5-yl)urea]
COc1nn(-c2ccccc2)c(NC(=O)N[C@@H]2c3ccccc3C3(CC3)[C@H]2O)c1C (relative stereo) [Example 60, 1-(trans-2′-hydroxy-2′,3′-dihydrospiro[cyclopropane-1,1′-inden]-3-yl)-3-(3-methoxy-4-methyl-1-phenyl-1H-pyrazol-5-yl)urea]
CCOc1nn(-c2ccccc2)c(NC(=O)N[C@@H]2c3ccccc3C3(CC3)[C@H]2O)c1C (relative stereo) [Example 61, 1-(3-ethoxy-4-methyl-1-phenyl-1H-pyrazol-5-yl)-3-(trans-2′-hydroxy-2′,3′-dihydrospiro[cyclopropane-1,1-inden]-3-yl)urea]
COc1nn(-c2ccccc2)c(NC(=O)N[C@@H]2c3cc(F)c(F)cc3C3(CC3)[C@H]2O)c1C (relative stereo) [Example 62, 1-(trans-5′,6′-difluoro-2′-hydroxy-2′,3′-dihydrospiro[cyclopropane-1,1′-inden]-3′-yl)-3-(3-methoxy-4-methyl-1-phenyl-1H-pyrazol-5-yl)urea]
Cc1c(-c2cnn(C)c2)nn(-c2ccccc2)c1NC(=O)N[C@@H]1c2cc(F)ccc2C2(CC2)[C@H]1O (relative stereo) [Example 63, 1-(1′,4-dimethyl-1-phenyl-1H,1′H-[3,4′-bipyrazol]-5-yl)-3-(trans-5′-fluoro-2′-hydroxy-2′,3′-dihydrospiro[cyclopropane-1,1′-inden]-3′-yl)urea]
Cc1c(-c2cnn(C)c2)nn(-c2ccccc2)c1NC(=O)N[C@@H]1c2ccc(F)cc2C2(CC2)[C@H]1O (relative stereo) [Example 64, 1-(1′,4-dimethyl-1-phenyl-1H,1′H-[3,4′-bipyrazol]-5-yl)-3-(trans-6′-fluoro-2′-hydroxy-2′,3′-dihydrospiro[cyclopropane-1,1′-inden]-3′-yl)urea]
Cc1c(NC(=O)N[C@@H]2c3ccccc3C(C)(C)C[C@H]2O)n(-c2ccccc2)[nH]c1=O (relative stereo) [Example 95, 1-(trans-2-hydroxy-4,4-dimethyl-1,2,3,4-tetrahydronaphthalen-1-yl)-3-(4-methyl-5-oxo-2-phenyl-2,5-dihydro-1H-pyrazol-3-yl)urea]
COc1nn(-c2ccccc2)c(NC(=O)N[C@@H]2c3ccccc3C(C)(C)C[C@H]2O)c1C (relative stereo) [Example 97, 1-(trans-2-hydroxy-4,4-dimethyl-1,2,3,4-tetrahydronaphthalen-1-yl)-3-(3-methoxy-4-methyl-1-phenyl-1H-pyrazol-5-yl)urea]
COC(=O)c1ccc2c(c1)[C@@H](NC(=O)Nc1c(C)c(C)nn1-c1ccccc1)[C@H](O)CC2(C)C (relative stereo) [Example 99, trans-methyl 8-(3-(3,4-dimethyl-1-phenyl-1H-pyrazol-5-yl)ureido)-7-hydroxy-5,5-dimethyl-5,6,7,8-tetrahydronaphthalene-2-carboxylate]
Cc1c(-c2cnn(C)c2)nn(-c2ccccc2)c1NC(=O)N[C@@H]1c2ccccc2CC[C@H]1O (relative stereo) [Example 101, 1-(1′,4-dimethyl-1-phenyl-1H,1′H-[3,4′-bipyrazol]-5-yl)-3-(trans-2-hydroxy-1,2,3,4-tetrahydronaphthalen-1-yl)urea]
COCc1ccc2c(c1)[C@@H](NC(=O)Nc1c(C)c(-c3cnn(C)c3)nn1-c1ccccc1)[C@H](O)CC2(C)C (relative stereo) [Example 102, 1-(1′,4-dimethyl-1-phenyl-1H,1′H-[3,4′-bipyrazol]-5-yl)-3-(trans-2-hydroxy-7-(methoxymethyl)-4,4-dimethyl-1,2,3,4-tetrahydronaphthalen-1-yl)urea]
Cc1c(-c2cnn(C)c2)nn(-c2ccccc2)c1NC(=O)N[C@@H]1c2cc(Cl)ccc2C(C)(C)C[C@H]1O (relative stereo) [Example 104, 1-(trans-7-chloro-2-hydroxy-4,4-dimethyl-1,2,3,4-tetrahydronaphthalen-1-yl)-3-(1′,4-dimethyl-1-phenyl-1H,1′H-[3,4′-bipyrazol]-5-yl)urea]
Cc1c(-c2cnn(C)c2)nn(-c2ccccc2)c1NC(=O)N[C@@H]1c2ccccc2C(C)(C)C[C@H]1O (relative stereo) [Example 105, 1-(1′,4-dimethyl-1-phenyl-1H,1′H-[3,4′-bipyrazol]-5-yl)-3-(trans-2-hydroxy-4,4-dimethyl-1,2,3,4-tetrahydronaphthalen-1-yl)urea]
Cc1c(-c2ccc(=O)n(C)c2)nn(-c2ccccc2)c1NC(=O)N[C@@H]1c2ccccc2C(C)(C)C[C@H]1O (relative stereo) [Example 106, 1-(trans-2-hydroxy-4,4-dimethyl-1,2,3,4-tetrahydronaphthalen-1-yl)-3-(4-methyl-3-(1-methyl-6-oxo-1,6-dihydropyridin-3-yl)-1-phenyl-1H-pyrazol-5-yl)urea]
Cc1c(-c2ccn(C)c(=O)c2)nn(-c2ccccc2)c1NC(=O)N[C@@H]1c2ccccc2C(C)(C)C[C@H]1O (relative stereo) [Example 107, 1-(trans-2-hydroxy-4,4-dimethyl-1,2,3,4-tetrahydronaphthalen-1-yl)-3-(4-methyl-3-(1-methyl-2-oxo-1,2-dihydropyridin-4-yl)-1-phenyl-1H-pyrazol-5-yl)urea]
Cc1ncc(-c2nn(-c3ccccc3)c(NC(=O)N[C@@H]3c4ccccc4CC[C@H]3O)c2C)cn1 (relative stereo) [Example 118, 1-(trans-2-hydroxy-1,2,3,4-tetrhydronaphthalen-1-yl)-3-(4-methyl-3-(2-methylpyrimidin-5-yl)-1-phenyl-1H-pyrazol-5-yl)urea]
COc1ncc(-c2nn(-c3ccccc3)c(NC(=O)N[C@@H]3c4ccccc4CC[C@H]3O)c2C)cn1 (relative stereo) [Example 119, 1-(trans-2-hydroxy-1,2,3,4-tetrahydronaphthalen-1-yl)-3-(3-(2-methoxypyrimidin-5-yl)-4-methyl-1-phenyl-1H-pyrazol-5-yl)urea]
CNC(=O)c1nn(-c2ccccc2)c(NC(=O)N[C@@H]2c3cc(COC)ccc3C(C)(C)C[C@H]2O)c1C (relative stereo) [Example 120, 5-(3-(trans-2-hydroxy-7-(methoxymethyl)-4,4-dimethyl-1,2,3,4-tetrahydronaphthalen-1-yl)ureido)-N,4-dimethyl-1-phenyl-1H-pyrazole-3-carboxamide]
Cc1nn(-c2ccccc2)c(NC(=O)N[C@@H]2c3ccccc3CC[C@H]2O)c1C (relative stereo) [Example 121, 1-(3,4-dimethyl-1-phenyl-1H-pyrazol-5-yl)-3-(trans-2-hydroxy-1,2,3,4-tetrahydronaphthalen-1-yl)urea]
Cc1c(OCC2CCN(C)CC2)nn(-c2ccccc2)c1NC(=O)N[C@@H]1c2ccccc2C(C)(C)C[C@H]1O (relative stereo) [Example 122, 1-(trans-2-hydroxy-4,4-dimethyl-1,2,3,4-tetrahydronaphthalen-1-yl)-3-(4-methyl-3-((1-methylpiperidin-4-yl)methoxy)-1-phenyl-1H-pyrazol-5-yl)urea]
Cc1c(OCC2CCN(C)CC2)nn(-c2ccccc2)c1NC(=O)N[C@@H]1c2ccccc2CC[C@H]1O (relative stereo) [Example 123, 1-(trans-2-hydroxy-1,2,3,4-tetrahydronaphthalen-1-yl)-3-(4-methyl-3-((1-methylpiperidin-4-yl)methoxy)-1-phenyl-1H-pyrazol-5-yl)urea]
CNC(=O)c1nn(-c2ccccc2)c(NC(=O)N[C@@H]2c3ccccc3C(C)(C)C[C@H]2O)c1C (relative stereo) [Example 124, 5-(3-(trans-2-hydroxy-4,4-dimethyl-1,2,3,4-tetrahydronaphthalen-1-yl)ureido)-N,4-dimethyl-1-phenyl-1H-pyrazole-3-carboxamide]
